Tests used:
[1] = set-up: method as in PMID 21628411, PMID 24953177; conditions: off-target inhibition of the potassium channel hERG; cited from earlier work
MV-4-11 xenograft = experiment: MV-4-11 xenograft, SEL24-B489 and AraC alone or combined; format: in vivo, mice; conditions: MV-4-11, AraC alone 50 mg/kg three times weekly IP
From the text: All animals were handled in strict accordance with good animal practice as defined by the relevant national and local animal welfare bodies. SCID and SCID/beige C.B-17 mice were provided by Harlan Laboratories or Charles River Laboratories, and were maintained in pathogen free conditions. For the xenograft experiments, age-matched (9-11 weeks old) females were used. 5×10^6 of MV-4-11 or MOLM-16 cells were suspended in a mixture (1:1, v:v) of PBS with Matrigel (BD Biosciences,) and injected subcutaneously (sc), in a total volume of 100 μL, above the groin on the right hind limb. For MOLM-13 and KG-1 cells, a mixture (3:1, v:v) of PBS and Matrigel HC (BD Bioscience,) was used to inject 5 × 10^6 of cell per mouse subcutaneously (sc), in a total volume of 100 μL. When tumors reached 100-130 mm^3, mice were randomized into uniform groups (6-9 mice per group) and subsequently administered the compound. […] At the end of the experiment, mice were anesthetized with isofluran and blood samples for total cell counts and biochemistry were obtained by retro-orbital bleeding. […] 5×10^6 cells suspended in a mixture (3:1, v:v) of PBS and Matrigel were injected as described above. […] Tumor volume was monitored every second day and calculated using the formula: TV = (a^2×b)/2, where “a” is the short axis in millimeters, and “b” is the long axis in millimeters. Body weight was assessed every day.

[2] = Blood biochemistry in mice with MV-4-11 tumors; format: in vivo; conditions: Cytarabine 50 mg/kg, treatment day 15
From the text: All animals were handled in strict accordance with good animal practice as defined by the relevant national and local animal welfare bodies. SCID and SCID/beige C.B-17 mice were provided by Harlan Laboratories or Charles River Laboratories, and were maintained in pathogen free conditions. For the xenograft experiments, age-matched (9-11 weeks old) females were used. 5×10^6 of MV-4-11 or MOLM-16 cells were suspended in a mixture (1:1, v:v) of PBS with Matrigel (BD Biosciences,) and injected subcutaneously (sc), in a total volume of 100 μL, above the groin on the right hind limb. For MOLM-13 and KG-1 cells, a mixture (3:1, v:v) of PBS and Matrigel HC (BD Bioscience,) was used to inject 5 × 10^6 of cell per mouse subcutaneously (sc), in a total volume of 100 μL. When tumors reached 100-130 mm^3, mice were randomized into uniform groups (6-9 mice per group) and subsequently administered the compound. […] At the end of the experiment, mice were anesthetized with isofluran and blood samples for total cell counts and biochemistry were obtained by retro-orbital bleeding. […] 5×10^6 cells suspended in a mixture (3:1, v:v) of PBS and Matrigel were injected as described above. When the tumor volume reached ~120 mm^3, mice were randomized into uniform groups (5 mice per group) and the compound then administered. […] Tumor volume was monitored every second day and calculated using the formula: TV = (a^2×b)/2, where “a” is the short axis in millimeters, and “b” is the long axis in millimeters. Body weight was assessed every day.
Supplementary Table 9: Related to Figure 5C. […] The assessment of
was performed on treatment day 15.
AST – Aspartate aminotransferase, ALT – Alanine transaminase, ALP – alkaline phosphatase, UREA – blood urea nitrogen,
CREA – Creatinine, CK – Creatine kinase, TP- total protein; ALB – Albumin. […]

[3] = Total blood cell counts in mice with MV-4-11 tumors; conditions: Cytarabine 50 mg/kg, treatment day 15
From the text: All animals were handled in strict accordance with good animal practice as defined by the relevant national and local animal welfare bodies. SCID and SCID/beige C.B-17 mice were provided by Harlan Laboratories or Charles River Laboratories, and were maintained in pathogen free conditions. For the xenograft experiments, age-matched (9-11 weeks old) females were used. 5×10^6 of MV-4-11 or MOLM-16 cells were suspended in a mixture (1:1, v:v) of PBS with Matrigel (BD Biosciences,) and injected subcutaneously (sc), in a total volume of 100 μL, above the groin on the right hind limb. For MOLM-13 and KG-1 cells, a mixture (3:1, v:v) of PBS and Matrigel HC (BD Bioscience,) was used to inject 5 × 10^6 of cell per mouse subcutaneously (sc), in a total volume of 100 μL. When tumors reached 100-130 mm^3, mice were randomized into uniform groups (6-9 mice per group) and subsequently administered the compound. […] At the end of the experiment, mice were anesthetized with isofluran and blood samples for total cell counts and biochemistry were obtained by retro-orbital bleeding. […] 5×10^6 cells suspended in a mixture (3:1, v:v) of PBS and Matrigel were injected as described above. When the tumor volume reached ~120 mm^3, mice were randomized into uniform groups (5 mice per group) and the compound then administered. […] Tumor volume was monitored every second day and calculated using the formula: TV = (a^2×b)/2, where “a” is the short axis in millimeters, and “b” is the long axis in millimeters. Body weight was assessed every day. […]
Supplementary Table 10: Related to Figure 5C. […] The assessment total
performed on treatment day 15.
RBC – red blood cells, HGB – hemoglobin, HCT – hematocrit, WBC – white blood cells, LYMPH – lymphocytes, MONO
– monocytes, GRA – granulocytes, PLT – platelet, MPV – mean platelet volume.

MV-4-11 = experiment: MTS viability assay, 72 h; conditions: Homo sapiens, MV4-11, 72 h
Procedure: (§1) On the same day, 50 μL of medium containing tested inhibitor was added to the wells. Each compound was tested at 8 concentrations, in triplicates. As a negative control, the medium containing 0.1% DMSO was used. […] Staurosporine was used at 10 μM as a positive control. One the day of drug addition, basal signal from untreated cells was measured from in triplicate to determine time zero (T0). […] GI50 and LC50 values were extrapolated from a variable (four-parameter) dose-response curve fitted in GraphPad Prism.

MOLM-13 = experiment: MTS viability assay, 72 h; conditions: Homo sapiens, MOLM-13, 72 h
Procedure: (§2) 15-25 ×10^3 of MV-4-11, MOLM-13, MOLM-14, MOLM-16, KG-1, Eol-1, SKM-1, PL-21, GDM-1, SKNO-1, RS4;11, Kasumi-3 and Kasumi-6 cells were seeded in 150 μL of culture medium onto individual wells in a 96 well plates, in triplicates. On the same day, 50 μL of medium containing tested inhibitor was added to the wells. Each compound was tested at 8 concentrations, in triplicates. As a negative control, the medium containing 0.1% DMSO was used. […] Staurosporine was used at 10 μM as a positive control. One the day of drug addition, basal signal from untreated cells was measured from in triplicate to determine time zero (T0). […] GI50 and LC50 values were extrapolated from a variable (four-parameter) dose-response curve fitted in GraphPad Prism.

MOLM-14 = experiment: MTS viability assay, 72 h; conditions: Homo sapiens, MOLM-14, 72 h
Procedure: as §2

MOLM-16 = experiment: MTS viability assay, 72 h; conditions: MOLM16, 72 h
Procedure: as §1

KG-1 = experiment: MTS viability assay, 72 h; conditions: Homo sapiens, KG-1, 72 h
Procedure: as §2

EOL-1 = experiment: MTS viability assay, 72 h; conditions: Homo sapiens, EOL1, 72 h
Procedure: as §2

KASUMI-3 = experiment: MTS viability assay, 72 h; conditions: Kasumi-3, 72 h
Procedure: as §2

KASUMI-6 = experiment: MTS viability assay, 72 h; conditions: 72 h
Procedure: as §2

OCI-AML-2 = experiment: MTS viability assay, 72 h; conditions: Homo sapiens, OCI-AML2, 72 h
Procedure: as §1

OCI-AML-3 = experiment: MTS viability assay, 72 h; conditions: Homo sapiens, OCI-AML-3, 72 h
Procedure: as §2

MOLM-6 = experiment: MTS viability assay, 72 h; conditions: 72 h
Procedure: as §2

RS4;11 = experiment: MTS viability assay, 72 h; conditions: Homo sapiens, RS4-11, 72 h
Procedure: as §2

SKNO-1 = experiment: MTS viability assay, 72 h; conditions: SKNO-1, 72 h
Procedure: as §2

SKM-1 = experiment: MTS viability assay, 72 h; conditions: Homo sapiens, SKM-1, 72 h
Procedure: as §1

SIG-M5 = experiment: MTS viability assay, 72 h; conditions: Homo sapiens, SIG-M5, 72 h
Procedure: as §1

GDM-1 = experiment: MTS viability assay, 72 h; conditions: Homo sapiens, GDM-1, 72 h
Procedure: as §2

PL-21 = experiment: MTS viability assay, 72 h; conditions: PL-21, 72 h
Procedure: as §2

CN1CCC(CNc2ccc3ncc(-c4cccc(OC(F)(F)F)c4)n3n2)CC1 [SGI-1776]
outcome of clinical testing [1]: failed clinical testing due to a narrow therapeutic window and cardiac toxicity

Nc1ccn([C@@H]2O[C@H](CO)[C@@H](O)[C@@H]2O)c(=O)n1 [Cytarabine]
decrease of tumor growth (MV-4-11 xenograft): 66%
ALB [2]: 4.6 g/dL
ALP [2]: 87.6 U/L
ALT [2]: 153.7 U/L
AST [2]: 247.1 U/L
CK [2]: 1709 U/L
CREA [2]: 0.37 mg/dL
K [2]: 5.4 mM
TP [2]: 4.6 g/dL
UREA [2]: 5.9 mmol/L
GRA [3]: 51.9%
HCT [3]: 49.5%
HGB [3]: 14.4 g/dL
LYMPH [3]: 37.7%
MONO [3]: 10.3%
MPV [3]: 5.9 μm3
PLT [3]: 1098 103/mm3
RBC [3]: 9.9 106/mm3
WBC [3]: 5.0 103/mm3
GI50 (MV-4-11): 340 nM
CC50 (MV-4-11; read-out: LC50): > 10000 nM
GI50 (MOLM-13): < 5 nM
CC50 (MOLM-13; read-out: LC50): > 10000 nM
GI50 (MOLM-14): 48 nM
CC50 (MOLM-14; read-out: LC50): > 10000 nM
GI50 (MOLM-16): 22 nM
CC50 (MOLM-16; read-out: LC50): > 10000 nM
GI50 (KG-1): 12 nM
CC50 (KG-1; read-out: LC50): 71 nM
GI50 (EOL-1): 24 nM
GI50 (KASUMI-3): < 5 nM
CC50 (KASUMI-3; read-out: LC50): 28 nM
GI50 (KASUMI-6): < 5 nM
GI50 (OCI-AML-2): < 5 nM
CC50 (OCI-AML-2; read-out: LC50): 21 nM
GI50 (OCI-AML-3): 81 nM
CC50 (OCI-AML-3; read-out: LC50): > 10000 nM
GI50 (MOLM-6): 30 nM
CC50 (MOLM-6; read-out: LC50): > 10000 nM
GI50 (RS4;11): < 5 nM
CC50 (RS4;11; read-out: LC50): 23 nM
GI50 (SKNO-1): < 5 nM
GI50 (SKM-1): 28 nM
CC50 (SKM-1; read-out: LC50): 6460 nM
GI50 (SIG-M5): 46 nM
CC50 (SIG-M5; read-out: LC50): > 10000 nM
GI50 (GDM-1): < 5 nM
GI50 (PL-21): < 5 nM

Source: publication PMC5908295 (Oncotarget, 2018)
